Experimental data as given in patent US20240109925A1, “Enhanced Anti-Proliferative and Antitumor Immune Effects of Mitochondria-Targeted Hydroxyurea” (The Medical College of Wisconsin, Inc., priority 2021, published 2024).
Like-named read-outs stand apart in the source and are kept apart here.

Legend:
[1] = test system: CD4 T cells; assay: In vitro differentiation of CD4 T cells (Treg / IFNg-YFP Teff), flow cytometry; assay type: cell-based, mouse; settings: for Concentration with Maximum Effect on IFN -YFP: tested concentration with maximum effect, six days culture
Text: FIG. 4. Effects of Mito10-HU on in vitro differentiation of CD4 T cells (A) The gating strategy reflects data from one DMSO control sample. First, the total population of cells was gated (FSC-A vs SSC-A). Then, single cells were gated (SSC-W vs SSC-H). Within the single cell population, we gated on the live CD4 T cells using a fixable LIVE/DEAD stain (CD4 vs DEAD). Within the live CD4 T cells we gated on CD25+FOXP3+Tregs (FOXP3 vs CD25), as well as IFNg-YFP+CD4 T cells (IFNg-YFP vs CD4). (B) Live CD4 T cells were gated within the single cell populations, at varying concentrations of Mito10-HU, along with DMSO controls (B, top row). CD25+FOXP3+Tregs (B, middle row) and IFNg-YFP+CD4 T cells (B, bottom row) were gated within the live CD4 T cell populations, at varying concentrations of Mito10-HU, along with DMSO controls. (C) Effects of Mito10-HU on live CD4+T cells within the lymphocyte gate (C, left), the frequency of FOXP3+CD25+cells within the live CD4+T cells (C, middle), and Teff function is shown as the frequency of IFNg-YFP positive cells within the live CD4+T cells (C, right). Data shown are the means & SD, n=2 per treatment group. *p<0.05, **p<0.01 vs control.
To differentiate CD4^+ T cells into a Treg phenotype, splenocytes from SMARTA triple-reporter mice were processed and the red blood cells were lysed using an ACK (ammonium-chloride-potassium) lysis buffer. The cells were then activated with […] GP61-80 peptide (GenScript, Piscataway, NJ) and 5 ng/mL TGF-b1 (Shenandoah Biotechnology, Inc., Warwick, PA). After one day of initial skewing, […] IL-2 along with HU or Mito-HUs (n=4-20) of varying concentrations were added to the culture. Cells were cultured for six days and split once cells reached confluency; cells were replenished with IL-2 and compound (i.e., MitoHUs) accordingly. After six days in culture, cells were stained to assess the viability and phenotypic analysis via flow cytometry. LIVE/DEAD fixable violet or aqua dead cell stain (Invitrogen) was used to assess cell viability. Only live cells were gated out for further functional analysis by using a fixable LIVE/DEAD stain. First, total population of cells was gated (FSC-A vs SSC-A). Then, single cells were gated (SSC-W vs SSC-H). Within the single cell population, we gated on the live CD4 T cells using a fixable Live/Dead stain (CD4 vs DEAD). Within the live CD4 T cells, we gated on CD25^+FOXP3^+ Tregs (FOXP3 vs CD25), as well as IFNg-YFP^+ CD4 T cells (IFNg-YFP vs CD4).
The following antibodies were used for flow cytometry staining: APC-Cy7 anti-mouse CD4 (clone: GK1.5; BioLegend, San Diego, CA), APC anti-mouse CD25 (clone: PC61; BioLegend), and PE anti-mouse FOXP3 (clone: FJK-165; eBioscience, San Diego, CA). Flow cytometry data were acquired using a BD Celesta flow cytometer (BD Biosciences, San Jose, CA) flow cytometer and analyzed using FlowJo (Treestar, Inc., Ashland, OR) (FlowJo Software, 2019).

[2] = target: mitochondrial complex I (Homo sapiens, UniProt O75251+O75306+P03886); assay: Complex I-dependent oxygen consumption (OCR), Seahorse XF-96, HCT116 cells; assay type: cell-based
Protocol: FIG. 2. Effects of HU and Mito-HUs on the oxygen consumption by mitochondrial complexes I and III (A) Dose-dependent effects of HU, Mito10-HU, Mito12-HU, Mito14-HU, Mito16-HU, and Mito20-HU on complex I- and complex III-dependent oxygen consumption were measured in HCT116 cells. HCT116 cells were treated with HU or Mito-HUs as indicated for 24 hr. Mitochondrial complex I activity (left) and complex III activity (right) were monitored by a Seahorse XF-96 analyzer. Either rotenone (complex I inhibitor) or antimycin A (complex III inhibitor) was acutely added and OCR assayed immediately. (B) The mitochondrial complex I (left) and III (right) dependent oxygen consumption (calculated as rotenone or antimycin A inhibitable OCR) are plotted against concentration of HU and Mito-HUs. Dashed lines represent the fitting curves used for determination of the IC50 values. Data shown are the means G SD.
Mitochondrial oxygen consumption was measured using the Seahorse XF-96 Extracellular Flux Analyzer (Agilent, North Billerica, MA) (Cheng et al., 2013, 2016; Boyle et al., 2018; Weinberg and Chandel, 2015). After cells were treated with HU or Mito-HUs for 24 hr, the OCR-based assessment of mitochondrial complex activities was carried out on acutely permeabilized cells in the presence of different mitochondrial substrates, i.e., pyruvate/malate for complex I and duroquinol for complex III (Cheng et al., 2016, 2019; Salabei et al., 2014; Wheaton et al., 2014). Rotenone, malonate, and antimycin A (Sigma-Aldrich, St. Louis, MO) were used as specific inhibitors of mitochondrial complexes I, II, and III, respectively. Briefly, cells that were intact after treatments were immediately permeabilized using the Seahorse XF Plasma Membrane Permeabilizer (Agilent). The mitochondrial complex I-induced OCR was assayed in mannitol and sucrose buffer (Salabei et al., 2014) containing 10 mM pyruvate and 1.5 mM malate (substrates for complex I) and 10 mM malonate (which inhibits complex II activities). The mitochondrial complex III-driven OCR was assayed in a mannitol and sucrose buffer containing 0.5 mM duroquinol (substrate for complex III) as well as […] and 10 mM malonate (which inhibit both complex I and II activities). The IC50 values were determined as previously reported (Cheng et al., 2019).

[3] = mean ± SD; HCT116, 24 hr treatment; read-out: IC50 Complex I (FIG. 2)

| SMILES | Concentration with Maximum Effect on IFN -YFP [1] | effect on complex I-induced oxygen consumption ([2]; HCT116, 24 hr) | IC50 [2, 3] | also measured |
| --- | --- | --- | --- | --- |
| NC(=O)NOCCCCCCCCCCCC[P+](c1ccccc1)(c1ccccc1)c1ccccc1.O=C([O-])C(F)(F)F [Mito12-HU, 12-[(carbamoylamino)oxy]-dodecyltriphenylphosphonium trifluoroacetate] | 10 µM | potently inhibited | 1.6 ± 0.16 µM | – |
| NC(=O)NOCCCCCCCCCCCCCCCCCCCC[P+](c1ccccc1)(c1ccccc1)c1ccccc1.O=C([O-])C(F)(F)F [Mito20-HU, 20-[(carbamoylamino)oxy]-eicosanyltriphenylphosphonium trifluoroacetate] | 0.3 µM | – | 0.8 ± 0.06 µM | lowest concentration with maximal effect on Teff activation ([1]; IFNg-YFP): 0.3 mM |
| NC(=O)NOCCCCCCCCCC[P+](c1ccccc1)(c1ccccc1)c1ccccc1.O=C([O-])C(F)(F)F [Mito10-HU, 10-[(carbamoylamino)oxy]-decyltriphenylphosphonium trifluoroacetate] | 12.5 µM | potently inhibited | 8.9 ± 1.22 µM | FOXP3+ Treg differentiation ([1]; six days): inhibited FOXP3^+ Treg differentiation and/or survival; Teff IFNg production ([1]; six days): promoted Teff IFNg production |
| NC(=O)NOCCCCCCCCCCCCCC[P+](c1ccccc1)(c1ccccc1)c1ccccc1.O=C([O-])C(F)(F)F [Mito14-HU, 14-[(carbamoylamino)oxy]-tetradecyltriphenylphosphonium trifluoroacetate] | 1.5 µM | potently inhibited | 1 ± 0.12 µM | – |
| NC(=O)NO [HU, Hydroxyurea] | 200 µM | no apparent effects | – | remaining activity at 10 µM ([2]; HCT-116; 10 μM, 24 hr, HCT116; n = 4; read-out: Complex I activity (OCR, % of control)): 84.7%; remaining activity at 30 µM ([2]; HCT-116; 30 μM, 24 hr, HCT116; n = 4; read-out: Complex I activity (OCR, % of control)): 77%; remaining activity at 100 µM ([2]; HCT-116; 100 μM, 24 hr, HCT116; n = 4; read-out: Complex I activity (OCR, % of control)): 87.9%; remaining activity at 150 µM ([2]; HCT-116; 150 μM, 24 hr, HCT116; n = 4; read-out: Complex I activity (OCR, % of control)): 86.1%; remaining activity at 200 µM ([2]; HCT-116; 200 μM, 24 hr, HCT116; n = 4; read-out: Complex I activity (OCR, % of control)): 86.5%; remaining activity at 250 µM ([2]; HCT-116; 250 μM, 24 hr, HCT116; n = 4; read-out: Complex I activity (OCR, % of control)): 91.3%; remaining activity at 300 µM ([2]; HCT-116; 300 μM, 24 hr, HCT116; n = 4; read-out: Complex I activity (OCR, % of control)): 85.7%; remaining activity at 400 µM ([2]; HCT-116; 400 μM, 24 hr, HCT116; n = 4; read-out: Complex I activity (OCR, % of control)): 70.5%; remaining activity at 500 µM ([2]; HCT-116; 500 μM, 24 hr, HCT116; n = 4; read-out: Complex I activity (OCR, % of control)): 82.1%; remaining activity at 1000 µM ([2]; HCT-116; 1000 μM, 24 hr, HCT116; n = 4; read-out: Complex I activity (OCR, % of control)): 80.2%; remaining activity at 3000 µM ([2]; HCT-116; 3000 μM, 24 hr, HCT116; n = 4; read-out: Complex I activity (OCR, % of control)): 83.1%; IC50 ([2]; read-out: IC50 Complex I (FIG. 2); mean ± SD; HCT116, 24 hr treatment): > 3000 µM |
| NC(=O)NOCCCCCCCCCCCCCCCC[P+](c1ccccc1)(c1ccccc1)c1ccccc1.O=C([O-])C(F)(F)F [Mito16-HU, 16-[(carbamoylamino)oxy]-hexadecyltriphenylphosphonium trifluoroacetate] | 0.4 µM | potently inhibited | 0.8 ± 0.05 µM | – |
